In ChEMBL document CHEMBL1240493, “Homology modeling and atomic level binding study of GABA(A) receptor with novel enaminone amides” (Eur J Med Chem, 2010):

These compounds were tested against GABA-A receptor; alpha-1/beta-2/gamma-2 (Rattus norvegicus, UniProt P18508+P62813+P63138) (assay: Inhibition of rat GABA alpha-1-beta-2-gamma-2 receptor).
Type: protein-complex assay

Sequence of GABA-A receptor; alpha-1/beta-2/gamma-2 (P18508 whole entry): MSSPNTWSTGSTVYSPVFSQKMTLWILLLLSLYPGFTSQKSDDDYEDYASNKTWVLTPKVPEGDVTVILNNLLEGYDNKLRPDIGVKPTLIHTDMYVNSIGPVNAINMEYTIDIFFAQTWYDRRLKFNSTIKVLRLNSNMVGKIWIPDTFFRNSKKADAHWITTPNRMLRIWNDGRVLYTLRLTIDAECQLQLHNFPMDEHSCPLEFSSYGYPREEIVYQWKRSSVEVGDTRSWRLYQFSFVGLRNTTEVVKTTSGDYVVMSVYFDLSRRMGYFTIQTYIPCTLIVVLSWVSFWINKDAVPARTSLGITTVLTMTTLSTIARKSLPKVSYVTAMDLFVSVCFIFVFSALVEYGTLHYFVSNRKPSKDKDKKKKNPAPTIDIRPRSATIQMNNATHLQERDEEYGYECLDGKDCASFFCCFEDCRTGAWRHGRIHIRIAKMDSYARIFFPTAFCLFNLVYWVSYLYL
Sequence of GABA-A receptor; alpha-1/beta-2/gamma-2 (P62813 whole entry): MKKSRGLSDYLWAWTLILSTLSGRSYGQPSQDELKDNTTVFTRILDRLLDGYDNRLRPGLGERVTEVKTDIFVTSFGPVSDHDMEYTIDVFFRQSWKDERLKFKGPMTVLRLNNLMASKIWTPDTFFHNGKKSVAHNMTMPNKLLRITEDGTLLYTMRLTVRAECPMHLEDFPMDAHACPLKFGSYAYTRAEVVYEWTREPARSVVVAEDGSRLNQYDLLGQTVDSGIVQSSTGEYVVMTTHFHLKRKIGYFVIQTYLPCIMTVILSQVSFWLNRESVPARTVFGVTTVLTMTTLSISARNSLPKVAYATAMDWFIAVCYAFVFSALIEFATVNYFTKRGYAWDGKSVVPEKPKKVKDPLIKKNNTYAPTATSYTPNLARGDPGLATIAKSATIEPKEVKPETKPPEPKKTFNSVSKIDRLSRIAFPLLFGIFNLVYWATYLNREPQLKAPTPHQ
Sequence of GABA-A receptor; alpha-1/beta-2/gamma-2 (P63138 whole entry): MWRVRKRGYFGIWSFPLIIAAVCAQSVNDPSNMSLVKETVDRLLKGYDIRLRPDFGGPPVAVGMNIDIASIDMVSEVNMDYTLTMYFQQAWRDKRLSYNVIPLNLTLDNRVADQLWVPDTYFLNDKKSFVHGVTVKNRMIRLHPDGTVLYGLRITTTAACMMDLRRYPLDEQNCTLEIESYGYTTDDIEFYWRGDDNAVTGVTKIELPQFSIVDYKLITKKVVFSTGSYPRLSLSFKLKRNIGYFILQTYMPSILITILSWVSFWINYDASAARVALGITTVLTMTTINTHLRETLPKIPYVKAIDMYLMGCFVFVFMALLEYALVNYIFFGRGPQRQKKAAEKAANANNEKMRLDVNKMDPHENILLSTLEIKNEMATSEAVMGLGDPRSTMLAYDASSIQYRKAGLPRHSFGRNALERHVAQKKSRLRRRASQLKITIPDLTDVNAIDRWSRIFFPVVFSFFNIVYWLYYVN

Compared with `NC(=O)/C(=C\Nc1ccc(Cl)cc1)C(=O)c1ccccc1Cl`, `CNC(=O)/C(=C\Nc1ccc(Cl)cc1)C(=O)c1ccccc1Cl` is 11-fold lower in IC50: 1700 nM for the first, 158 nM for the second. The second is the more potent here.

First: CCC(CC)NC(=O)/C(=C\Nc1ccc(Cl)cc1)C(=O)c1ccccc1Cl
Second: CCC(C)NC(=O)/C(=C\Nc1ccc(Cl)cc1)C(=O)c1ccccc1Cl (configuration not stated)
The IC50 of the first is 4-fold higher: 79.4 nM for the first, 20 nM for the second.

`CCNC(=O)/C(=C\Nc1ccc(Cl)cc1)C(=O)c1ccccc1Cl` and `CCCNC(=O)/C(=C\Nc1ccc(Cl)cc1)C(=O)c1ccccc1Cl` are within 1.5-fold of each other in IC50: 50.1 nM for the first, 44.7 nM for the second.

First: CC(C)NC(=O)/C(=C\Nc1ccc(Cl)cc1)C(=O)c1ccccc1Cl
Second: CC(C)C(C)NC(=O)/C(=C\Nc1ccc(Cl)cc1)C(=O)c1ccccc1Cl (configuration not stated)
The IC50 of the first is 10-fold lower: 39.8 nM for the first, 398 nM for the second. The first is the more potent here.

First: O=C(NC1CC1)/C(=C\Nc1ccc(Cl)cc1)C(=O)c1ccccc1Cl
Second: O=C(NC1CCC1)/C(=C\Nc1ccc(Cl)cc1)C(=O)c1ccccc1Cl
The IC50 of the first is 4.3-fold higher: 30.2 nM for the first, 7.08 nM for the second.

Going from `O=C(NC1CCCC1)/C(=C\Nc1ccc(Cl)cc1)C(=O)c1ccccc1Cl` to `CC(C)(C)NC(=O)/C(=C\Nc1ccc(Cl)cc1)C(=O)c1ccccc1Cl`, the IC50 rises from 30.2 nM to 3020 nM (100-fold). The first is the more potent here.
